Values joined by “and” are separate entries in the source; they are usually repeats but may differ in a detail not shown here. Equal entries are not always repeated. Where two headings read alike, the source gives them in different places.
Key:
Assay in all cases: cell-based
[1] = biological target: hNav1.7 (Homo sapiens, UniProt Q15858); type: cell-based; conditions: PatchXpress; * = at high concentrations compound would wash off slowly or not at all; read-out: PX hNav1.7 Tonic IC50
[2] = biological target: T1, hNav1.4 (Homo sapiens, UniProt P35499); conditions: ratio of IonWorks Quattro IC50 values
[3] = biological target: T1, hNav1.4

T1 sequence (P35499 whole entry): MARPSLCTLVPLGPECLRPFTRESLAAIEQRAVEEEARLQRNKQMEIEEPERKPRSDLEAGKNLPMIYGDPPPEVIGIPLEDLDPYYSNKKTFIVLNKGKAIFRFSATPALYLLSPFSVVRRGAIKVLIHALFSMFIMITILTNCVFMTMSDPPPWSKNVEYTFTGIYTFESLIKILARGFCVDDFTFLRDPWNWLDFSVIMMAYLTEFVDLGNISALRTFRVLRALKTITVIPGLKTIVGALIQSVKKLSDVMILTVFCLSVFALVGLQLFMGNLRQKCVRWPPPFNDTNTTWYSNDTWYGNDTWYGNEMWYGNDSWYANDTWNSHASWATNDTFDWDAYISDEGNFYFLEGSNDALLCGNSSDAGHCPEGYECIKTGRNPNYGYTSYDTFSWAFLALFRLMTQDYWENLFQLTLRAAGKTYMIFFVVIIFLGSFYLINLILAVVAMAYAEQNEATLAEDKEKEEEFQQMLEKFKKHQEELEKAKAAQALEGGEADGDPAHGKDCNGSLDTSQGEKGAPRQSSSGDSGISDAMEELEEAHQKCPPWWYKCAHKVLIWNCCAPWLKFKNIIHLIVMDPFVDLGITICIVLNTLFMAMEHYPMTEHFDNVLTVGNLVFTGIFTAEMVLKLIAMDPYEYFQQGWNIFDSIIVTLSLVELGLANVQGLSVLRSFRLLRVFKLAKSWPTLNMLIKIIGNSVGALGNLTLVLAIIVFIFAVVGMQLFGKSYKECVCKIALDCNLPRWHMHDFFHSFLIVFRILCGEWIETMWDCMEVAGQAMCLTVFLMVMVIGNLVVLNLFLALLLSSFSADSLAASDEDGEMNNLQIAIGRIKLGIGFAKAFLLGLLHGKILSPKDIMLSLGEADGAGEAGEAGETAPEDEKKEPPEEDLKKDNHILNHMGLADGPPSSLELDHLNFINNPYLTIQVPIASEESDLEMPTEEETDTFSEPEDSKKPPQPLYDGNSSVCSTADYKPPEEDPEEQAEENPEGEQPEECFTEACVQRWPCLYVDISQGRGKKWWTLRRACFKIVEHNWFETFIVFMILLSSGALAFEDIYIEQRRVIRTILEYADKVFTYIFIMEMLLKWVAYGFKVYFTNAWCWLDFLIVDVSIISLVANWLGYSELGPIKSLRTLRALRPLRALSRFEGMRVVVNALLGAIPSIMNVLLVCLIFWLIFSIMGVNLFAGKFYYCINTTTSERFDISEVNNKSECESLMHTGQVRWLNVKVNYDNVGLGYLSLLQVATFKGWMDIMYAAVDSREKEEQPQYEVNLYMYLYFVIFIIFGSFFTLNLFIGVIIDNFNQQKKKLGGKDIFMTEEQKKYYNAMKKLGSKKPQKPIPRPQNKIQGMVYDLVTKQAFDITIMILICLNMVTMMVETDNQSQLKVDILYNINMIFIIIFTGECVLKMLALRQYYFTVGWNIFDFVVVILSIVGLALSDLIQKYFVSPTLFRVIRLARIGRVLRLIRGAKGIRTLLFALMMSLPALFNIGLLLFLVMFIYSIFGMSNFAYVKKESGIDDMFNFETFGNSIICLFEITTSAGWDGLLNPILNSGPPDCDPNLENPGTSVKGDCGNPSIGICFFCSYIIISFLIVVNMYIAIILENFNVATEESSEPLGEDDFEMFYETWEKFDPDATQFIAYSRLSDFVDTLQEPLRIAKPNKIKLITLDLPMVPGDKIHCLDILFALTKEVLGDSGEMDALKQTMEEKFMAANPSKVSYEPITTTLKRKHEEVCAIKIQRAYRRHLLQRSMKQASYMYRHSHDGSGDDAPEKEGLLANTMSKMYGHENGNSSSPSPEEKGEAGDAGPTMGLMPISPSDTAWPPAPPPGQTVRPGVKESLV
Sequence of hNav1.7 (Q15858 whole entry): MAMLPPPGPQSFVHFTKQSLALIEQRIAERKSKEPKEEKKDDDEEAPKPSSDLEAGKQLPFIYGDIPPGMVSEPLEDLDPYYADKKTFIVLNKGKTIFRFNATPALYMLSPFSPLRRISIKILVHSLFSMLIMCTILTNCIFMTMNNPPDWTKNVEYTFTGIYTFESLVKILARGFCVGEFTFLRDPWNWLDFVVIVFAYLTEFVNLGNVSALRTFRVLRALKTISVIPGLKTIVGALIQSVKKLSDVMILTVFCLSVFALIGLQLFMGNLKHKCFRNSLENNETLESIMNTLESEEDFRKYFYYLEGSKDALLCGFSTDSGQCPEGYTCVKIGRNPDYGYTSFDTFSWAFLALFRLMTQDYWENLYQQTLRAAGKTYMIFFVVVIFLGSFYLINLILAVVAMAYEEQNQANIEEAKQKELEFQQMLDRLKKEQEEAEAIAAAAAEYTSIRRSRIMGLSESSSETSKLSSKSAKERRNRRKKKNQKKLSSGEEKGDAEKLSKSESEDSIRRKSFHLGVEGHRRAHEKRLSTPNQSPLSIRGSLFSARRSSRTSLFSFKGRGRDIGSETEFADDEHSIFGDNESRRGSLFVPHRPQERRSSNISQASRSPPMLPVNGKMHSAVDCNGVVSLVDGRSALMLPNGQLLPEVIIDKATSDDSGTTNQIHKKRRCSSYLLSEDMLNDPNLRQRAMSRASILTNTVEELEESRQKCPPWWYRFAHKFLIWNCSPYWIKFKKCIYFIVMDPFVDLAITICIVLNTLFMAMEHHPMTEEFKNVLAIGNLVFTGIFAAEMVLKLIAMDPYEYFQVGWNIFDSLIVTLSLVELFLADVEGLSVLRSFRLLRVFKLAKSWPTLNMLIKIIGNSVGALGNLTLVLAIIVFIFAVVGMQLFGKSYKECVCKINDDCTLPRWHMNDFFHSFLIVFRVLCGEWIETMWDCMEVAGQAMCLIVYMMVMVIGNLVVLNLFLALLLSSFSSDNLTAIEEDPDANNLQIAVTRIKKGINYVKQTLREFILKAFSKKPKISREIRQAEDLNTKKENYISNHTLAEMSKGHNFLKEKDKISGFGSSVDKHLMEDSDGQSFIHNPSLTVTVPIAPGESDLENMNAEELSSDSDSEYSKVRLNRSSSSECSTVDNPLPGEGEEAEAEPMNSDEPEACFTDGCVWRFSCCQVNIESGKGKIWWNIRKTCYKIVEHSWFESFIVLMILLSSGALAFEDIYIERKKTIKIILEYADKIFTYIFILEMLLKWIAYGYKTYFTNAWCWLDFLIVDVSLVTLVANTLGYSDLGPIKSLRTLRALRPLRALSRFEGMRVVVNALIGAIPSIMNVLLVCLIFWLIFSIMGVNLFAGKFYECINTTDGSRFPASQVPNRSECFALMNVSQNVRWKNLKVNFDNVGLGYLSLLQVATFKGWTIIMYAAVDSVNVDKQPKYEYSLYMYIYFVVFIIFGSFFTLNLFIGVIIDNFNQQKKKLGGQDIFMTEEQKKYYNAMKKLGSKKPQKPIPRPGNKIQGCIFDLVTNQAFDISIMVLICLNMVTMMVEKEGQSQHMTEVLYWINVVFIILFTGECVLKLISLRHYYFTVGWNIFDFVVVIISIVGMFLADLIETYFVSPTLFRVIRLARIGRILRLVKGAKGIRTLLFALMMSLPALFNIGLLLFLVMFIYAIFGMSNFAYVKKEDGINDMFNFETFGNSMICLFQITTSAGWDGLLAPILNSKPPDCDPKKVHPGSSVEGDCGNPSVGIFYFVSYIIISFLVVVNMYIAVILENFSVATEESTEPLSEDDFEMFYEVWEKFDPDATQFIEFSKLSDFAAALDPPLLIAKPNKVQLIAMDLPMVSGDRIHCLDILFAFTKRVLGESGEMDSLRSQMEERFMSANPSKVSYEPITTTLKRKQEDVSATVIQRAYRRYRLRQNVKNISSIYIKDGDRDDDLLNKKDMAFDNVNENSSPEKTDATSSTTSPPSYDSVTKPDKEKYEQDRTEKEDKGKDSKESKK

SMILES	Nav1.4/Nav1.7 [2]	Nav1.4/Nav1.7 ([3]; ratio of PX IC50 values)	other results
CCCC[C@@H]1NC(=O)[C@H](Cc2c[nH]c3ccccc23)NC(=O)[C@H](CCCCN)NC(=O)[C@H](CCC(N)=O)NC(=O)[C@@H](NC(=O)[C@H](Cc2ccc(O)cc2)NC(=O)CN)CSSC[C@@H]2NC(=O)[C@@H]3CSSC[C@@H](C(=O)N[C@@H](CCCNC(=N)N)C(=O)N[C@@H](CCCCN)C(=O)N[C@H](C(=O)N[C@H](C(N)=O)[C@@H](C)CC)[C@@H](C)CC)NC(=O)[C@H](Cc4c[nH]c5ccccc45)NC(=O)[C@H](CC(C)C)NC(=O)[C@H](CCCCN)NC(=O)[C@H](CSSC[C@H](NC(=O)[C@H]([C@@H](C)O)NC(=O)[C@H](Cc4c[nH]c5ccccc45)NC1=O)C(=O)N[C@@H](CC(=O)O)C(=O)N[C@@H](CO)C(=O)N[C@@H](CCCCN)C(=O)N[C@@H](CCCNC(=N)N)C(=O)N[C@@H](C)C(=O)N3)NC(=O)[C@H](CCCNC(=N)N)NC(=O)[C@H](CC(C)C)NC(=O)CNC(=O)[C@H](CCC(=O)O)NC2=O [compound 359]	–	–	IC50 [1]: 0.000384 µM
CCCC[C@@H]1NC(=O)[C@H](Cc2c[nH]c3ccccc23)NC(=O)[C@H](CCCCN)NC(=O)[C@H](CCC(N)=O)NC(=O)[C@@H](NC(=O)[C@@H](N)Cc2ccc(O)cc2)CSSC[C@@H]2NC(=O)[C@@H]3CSSC[C@@H](C(=O)N[C@@H](CCCNC(=N)N)C(=O)N[C@@H](CCCCN)C(=O)N[C@H](C(=O)N[C@@H](Cc4cn(CCCOCCOCCOCCOCCOCCOCCOCCOCCOCCOCCN)nn4)C(N)=O)[C@@H](C)CC)NC(=O)[C@H](Cc4c[nH]c5ccccc45)NC(=O)[C@H](CC(C)C)NC(=O)[C@H](CCCCN)NC(=O)[C@H](CSSC[C@H](NC(=O)[C@H]([C@@H](C)O)NC(=O)[C@H](Cc4c[nH]c5ccccc45)NC1=O)C(=O)N[C@@H](CC(=O)O)C(=O)N[C@@H](CO)C(=O)N[C@@H](CCCCN)C(=O)N[C@@H](CCCNC(=N)N)C(=O)N[C@@H](C)C(=O)N3)NC(=O)[C@H](CCCNC(=N)N)NC(=O)[C@H](CC(C)C)NC(=O)CNC(=O)[C@H](CCC(=O)O)NC2=O [compound 270]	2	–	–
C#CC[C@H](N)C(=O)NCCCC[C@@H]1NC(=O)[C@H](CCCNC(=N)N)NC(=O)[C@H](CCCCN)NC(=O)[C@H](CO)NC(=O)[C@H](CC(=O)O)NC(=O)[C@@H]2CSSC[C@@H]3NC(=O)[C@H](CCCNC(=N)N)NC(=O)[C@H](CC(C)C)NC(=O)CNC(=O)[C@H](CCC(=O)O)NC(=O)[C@H](CSSC[C@H](NC(=O)[C@H](Cc4ccc(O)cc4)NC(=O)[C@@H](N)CCC)C(=O)N[C@@H](CCC(N)=O)C(=O)N[C@@H](CCCCN)C(=O)N[C@@H](Cc4c[nH]c5ccccc45)C(=O)N[C@@H](CCCC)C(=O)N[C@@H](Cc4c[nH]c5ccccc45)C(=O)N[C@@H]([C@@H](C)O)C(=O)N2)NC(=O)[C@H](CSSC[C@@H](C(=O)N[C@@H](CCCNC(=N)N)C(=O)N[C@@H](CCCCN)C(=O)N[C@H](C(=O)N[C@H](C(N)=O)[C@@H](C)CC)[C@@H](C)CC)NC(=O)[C@H](Cc2c[nH]c4ccccc24)NC(=O)[C@H](CC(C)C)NC(=O)[C@H](CCCCN)NC3=O)NC1=O [compound 431]	–	–	IC50 ([3]; PatchXpress, tonic block, read-out: PX hNav1.4 Tonic IC50): 0.0205 µM; Nav1.4/Nav1.7 ([3]; ratio of PX tonic IC50 values): 13
CC[C@@H]1NC(=O)[C@H](CC(C)C)NC(=O)CNC(=O)[C@H](CCC(=O)O)NC(=O)[C@@H]2CSSC[C@H](NC(=O)[C@@H](N)Cc3ccc(O)cc3)C(=O)N[C@@H](CCC(N)=O)C(=O)N[C@@H](CCCCN)C(=O)N[C@@H](Cc3c[nH]c4ccccc34)C(=O)N[C@@H](CCSC)C(=O)N[C@@H](Cc3c[nH]c4ccccc34)C(=O)N[C@@H]([C@@H](C)O)C(=O)N[C@H]3CSSC[C@H](NC1=O)C(=O)N[C@@H](CCCCN)C(=O)N[C@@H](CC(C)C)C(=O)N[C@@H](Cc1c[nH]c4ccccc14)C(=O)N[C@H](C(=O)N[C@@H](CCCNC(=N)N)C(=O)N[C@@H](CCCCN)C(=O)N[C@H](C(=O)N[C@H](C(N)=O)[C@@H](C)CC)[C@@H](C)CC)CSSC[C@H](NC(=O)[C@H](C)NC(=O)[C@H](CCCNC(=N)N)NC(=O)[C@H](CCCCN)NC(=O)[C@H](CO)NC(=O)[C@H](CC(=O)O)NC3=O)C(=O)N2 [compound 117]	19	–	–
CCCC[C@@H]1NC(=O)[C@H](Cc2c[nH]c3ccccc23)NC(=O)[C@H](CCCCN)NC(=O)[C@H](CCC(N)=O)NC(=O)[C@@H](NC(=O)[C@H](Cc2ccc(O)cc2)NC(=O)[C@@H](N)Cc2cn(CCCOCCOCCOCCOCCOCCOCCOCCOCCOCCOCCN)nn2)CSSC[C@@H]2NC(=O)[C@@H]3CSSC[C@@H](C(=O)N[C@@H](CCCNC(=N)N)C(=O)N[C@@H](CCCCN)C(=O)N[C@H](C(=O)N[C@H](C(N)=O)[C@@H](C)CC)[C@@H](C)CC)NC(=O)[C@H](Cc4c[nH]c5ccccc45)NC(=O)[C@H](CC(C)C)NC(=O)[C@H](CCCCN)NC(=O)[C@H](CSSC[C@H](NC(=O)[C@H]([C@@H](C)O)NC(=O)[C@H](Cc4c[nH]c5ccccc45)NC1=O)C(=O)N[C@@H](CC(=O)O)C(=O)N[C@@H](CO)C(=O)N[C@@H](CCCCN)C(=O)N[C@@H](CCCNC(=N)N)C(=O)N[C@@H](C)C(=O)N3)NC(=O)[C@H](CCCNC(=N)N)NC(=O)[C@H](CC(C)C)NC(=O)CNC(=O)[C@H](CCC(=O)O)NC2=O [compound 247]	2	1	–
CC[C@H](NC(=O)[C@H](CCCCN)NC(=O)[C@H](CCCNC(=N)N)NC(=O)[C@@H]1CSSC[C@@H]2NC(=O)[C@H](C)NC(=O)[C@H](CCCNC(=N)N)NC(=O)[C@H](CCCCN)NC(=O)[C@H](CO)NC(=O)[C@H](CC(=O)O)NC(=O)[C@@H]3CSSC[C@H](NC(=O)[C@H](CCC(=O)O)NC(=O)[C@H](CC(C)C)NC(=O)CNC(=O)[C@H](CCC(=O)O)NC(=O)[C@H](CSSC[C@H](NC(=O)[C@@H](N)Cc4ccc(O)cc4)C(=O)N[C@@H](CCC(N)=O)C(=O)N[C@@H](CCCCN)C(=O)N[C@@H](Cc4c[nH]c5ccccc45)C(=O)N[C@@H](CCSC)C(=O)N[C@@H](Cc4c[nH]c5ccccc45)C(=O)N[C@@H]([C@@H](C)O)C(=O)N3)NC2=O)C(=O)N[C@@H](CCCCN)C(=O)N[C@@H](CC(C)C)C(=O)N[C@@H](Cc2c[nH]c3ccccc23)C(=O)N1)C(=O)N[C@H](C(N)=O)[C@@H](C)CC [compound 130]	29 and 24	–	–
CCC[C@H](N)C(=O)N[C@@H](Cc1ccc(O)cc1)C(=O)N[C@H]1CSSC[C@@H]2NC(=O)[C@@H]3CSSC[C@@H](C(=O)N[C@@H](CCCNC(=N)N)C(=O)N[C@@H](CCCCN)C(=O)N[C@H](C(=O)N[C@H](C(N)=O)[C@@H](C)CC)[C@@H](C)CC)NC(=O)[C@H](Cc4c[nH]c5ccccc45)NC(=O)[C@H](CC(C)C)NC(=O)[C@H](CCCCN)NC(=O)[C@H](CSSC[C@H](NC(=O)[C@H]([C@@H](C)O)NC(=O)[C@H](Cc4c[nH]c5ccccc45)NC(=O)[C@H](CC(C)C)NC(=O)[C@H](Cc4c[nH]c5ccccc45)NC(=O)[C@H](CCCCN)NC(=O)[C@H](CCC(N)=O)NC1=O)C(=O)N[C@@H](CC(=O)O)C(=O)N[C@@H](CO)C(=O)N[C@@H](CCCCN)C(=O)N[C@@H](CCCNC(=N)N)C(=O)N[C@@H](CCCCNC(=O)[C@@H](N)Cc1cn(CCOCCOCCOCCOCCOCCOCCOCCOCCOCCOCCN)nn1)C(=O)N3)NC(=O)[C@H](CCCNC(=N)N)NC(=O)[C@H](CC(C)C)NC(=O)CNC(=O)[C@H](CCC(=O)O)NC2=O [compound 446]	–	11	–
C#CC[C@@H]1NC(=O)[C@@H]2CSSC[C@H](NC(=O)[C@H](Cc3ccc(O)cc3)NC(=O)[C@@H](N)CC#N)C(=O)N[C@@H](CCC(N)=O)C(=O)N[C@@H](CCCCN)C(=O)N[C@@H](Cc3c[nH]c4ccccc34)C(=O)N[C@@H](CCCC)C(=O)N[C@@H](Cc3c[nH]c4ccccc34)C(=O)N[C@@H]([C@@H](C)O)C(=O)N[C@H]3CSSC[C@H](NC(=O)[C@H](CCC(=O)O)NC(=O)[C@H](CC(C)C)NC(=O)CNC1=O)C(=O)N[C@@H](CCCCN)C(=O)N[C@@H](CC(C)C)C(=O)N[C@@H](Cc1c[nH]c4ccccc14)C(=O)N[C@H](C(=O)N[C@@H](CCCNC(=N)N)C(=O)N[C@@H](CCCCN)C(=O)N[C@H](C(=O)N[C@H](C(N)=O)[C@@H](C)CC)[C@@H](C)CC)CSSC[C@H](NC(=O)[C@H](C)NC(=O)[C@H](CCCNC(=N)N)NC(=O)[C@H](CCCCN)NC(=O)[C@H](CO)NC(=O)[C@H](CC(=O)O)NC3=O)C(=O)N2 [compound 396]	–	–	Nav1.4/Nav1.7 ([3]; ratio of PX tonic IC50 values): 98
CCCC[C@@H]1NC(=O)[C@H](Cc2c[nH]c3ccccc23)NC(=O)[C@H](CCCCN)NC(=O)[C@H](CCC(N)=O)NC(=O)[C@@H](NC(=O)[C@@H](N)Cc2cn(CCCOCCOCCOCCOCCOCCOCCOCCOCCOCCOCCN)nn2)CSSC[C@@H]2NC(=O)[C@@H]3CSSC[C@@H](C(=O)N[C@@H](CCCNC(=N)N)C(=O)N[C@@H](CCCCN)C(=O)N[C@H](C(=O)N[C@H](C(N)=O)[C@@H](C)CC)[C@@H](C)CC)NC(=O)[C@H](Cc4c[nH]c5ccccc45)NC(=O)[C@H](CC(C)C)NC(=O)[C@H](CCCCN)NC(=O)[C@H](CSSC[C@H](NC(=O)[C@H]([C@@H](C)O)NC(=O)[C@H](Cc4c[nH]c5ccccc45)NC1=O)C(=O)N[C@@H](CC(=O)O)C(=O)N[C@@H](CO)C(=O)N[C@@H](CCCCN)C(=O)N[C@@H](CCCNC(=N)N)C(=O)N[C@@H](C)C(=O)N3)NC(=O)[C@H](CCCNC(=N)N)NC(=O)[C@H](CC(C)C)NC(=O)CNC(=O)[C@H](CCC(=O)O)NC2=O [compound 248]	4 and 3	15	–
CC[C@H](C)[C@H](NC(=O)[C@@H](NC(=O)[C@H](CCCCN)NC(=O)[C@H](CCCNC(=N)N)NC(=O)[C@@H]1CSSC[C@@H]2NC(=O)[C@H](C)NC(=O)[C@H](CCCNC(=N)N)NC(=O)[C@H](CCCCN)NC(=O)[C@H](CO)NC(=O)[C@H](CC(=O)O)NC(=O)[C@@H]3CSSC[C@H](NC(=O)[C@H](CCC(=O)O)NC(=O)[C@H](CC(C)C)NC(=O)CNC(=O)[C@H](CCC(=O)O)NC(=O)[C@H](CSSC[C@H](NC(=O)[C@@H](N)Cc4ccc(O)cc4)C(=O)N[C@@H](CCC(N)=O)C(=O)N[C@@H](CCCCN)C(=O)N[C@@H](Cc4c[nH]c5ccccc45)C(=O)N[C@@H](CCSC)C(=O)N[C@@H](Cc4c[nH]c5ccccc45)C(=O)N[C@@H]([C@@H](C)O)C(=O)N3)NC2=O)C(=O)N[C@@H](CCCCN)C(=O)N[C@@H](CC(C)C)C(=O)N[C@@H](Cc2c[nH]c3ccccc23)C(=O)N1)[C@@H](C)CC)C(N)=O [SEQ ID NO: 63, [Glu20]JzTx-V(1-29)]	–	–	IC50 ([3]; read-out: IC50 against hNav1.4 in the PX assay format): 1.25 µM

Reference: patent US9636418B2 (priority 2013, dated 2017)
